Assay results taken from patent publication US20260109708A1, “COMPOUNDS AND COMPOSITIONS USEFUL AS DEGRADERS OF MK2 KINASE” (Celgene Corporation, priority 2023, published 2026).

target: T1, p38a activated, mitogen-activated protein kinase-activated protein kinase 2 (MAPKAP-K2 or MK2) enzyme (Homo sapiens, UniProt P49137); assay: MK2 OMNIA biochemical assay (AssayQuant continuous-read kinase assay); details: [MK-2]=0.05 nM, [ATP]=100 μM, [AQT0425]=10 μM
T1 construct: purchased Invitrogen PV3317
Text: Example 56.2. Mitogen-Activated Protein Kinase-Activated Protein Kinase 2 AssayQuant Technologies® Assay for Compound Potency Assessment (MK2 OMNIA Biochemical Assay)
The protocol below describes a continuous-read kinase assay optimized to measure potency of compounds against p38a activated, mitogen-activated protein kinase-activated protein kinase 2 (MAPKAP-K2 or MK2) enzyme.
A 1.25× stock solution of MK2 (PV3317, from Invitrogen) and a 5× stock solution of ATP and Sox conjugated peptide substrate, AQT0425 (CSKS-AQT0425B, from AssayQuant Technologies), were prepared in 1× kinase reaction buffer consisting of 50 mM HEPES, pH 7.5, 0.01% Brij-35, 0.55 mM EGTA, 10 mM MgCl2 and 1 mM DTT.
10 μL of the ATP and substrate solution mix was added to a Coming (3574) 384-well, white, non-binding surface microtiter plate containing 0.5 μL of serially diluted test compounds prepared in DMSO. The reactions were started with the addition of 40 μL of the enzyme solution and monitored every 71 seconds for 240 min at kex 360/λem 485 in a Synergy H4 plate reader from BioTek at room temperature.
The initial linear portions of the net progress curves were fit according to a linear equation to yield the slope and percentage of inhibition (% inhibition) at each compound concentration. The net progress curves obtained during the entirety of reactions were also fit according to an ascending single-exponential equation (Eq. 1) to yield Vobs values at each compound concentration. Plots of % Inhibition versus degrader concentrations were fit according to a dose-response equation (Eq. 2) to generate IC50 and Hill slope values while plots of Vobs versus degrader concentration were fit according to Equation 3 (Eq. 3) to generate apparent Kinact values using the GraphPad PRISM software.
where F is the fluorescence intensity from the plate reader, V0 is a constant reflecting the relationship between the instrument readout and product concentration, t is time, e is Euler's number, and Vobs is the observed inactivation rate constant.
where % Inhibition is percentage of inhibition, IC50 is half maximal inhibitory concentration, [I] is the degraders concentration, and n is the Hill slope.
where kobs is the observed inactivation rate constant, Kinact is the apparent inactivation rate constant, K1 is the apparent inhibition constant, and [I] is the degrader concentration.

T1 sequence (P49137 whole entry): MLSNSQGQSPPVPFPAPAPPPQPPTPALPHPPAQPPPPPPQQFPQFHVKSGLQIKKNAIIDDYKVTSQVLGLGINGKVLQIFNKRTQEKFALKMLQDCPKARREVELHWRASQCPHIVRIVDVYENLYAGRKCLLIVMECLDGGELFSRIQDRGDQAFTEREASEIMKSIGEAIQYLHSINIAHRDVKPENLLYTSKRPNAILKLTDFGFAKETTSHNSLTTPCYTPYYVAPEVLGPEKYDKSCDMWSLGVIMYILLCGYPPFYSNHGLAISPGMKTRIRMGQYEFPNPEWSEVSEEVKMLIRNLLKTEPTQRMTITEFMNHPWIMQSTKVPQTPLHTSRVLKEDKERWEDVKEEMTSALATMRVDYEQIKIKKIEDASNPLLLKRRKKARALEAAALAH

IC50 [nM]	SMILES
< 150	C[C@@H]1CNc2c(sc3ccc4nc(-n5cc(C6CCN(CCN7CCN(c8ccc9c(C%10CCC(=O)NC%10=O)nn(C)c9c8)CC7)CC6)nn5)ccc4c23)C(=O)N1 (stereo partly drawn) [Ex 46, 3-(1-Methyl-6-(4-(2-(4-(1-((R)-10-methyl-8-oxo-9,10,11,12-tetrahydro-8H-[1,4]diazepino[5′,6′:4,5]thieno[3,2-f]quinolin-3-yl)-1H-1,2,3-triazol-4-yl)piperidin-1-yl)ethyl)piperazin-1-yl)-1H-indazol-3-yl)piperidine-2,6-dione]
< 150	C[C@@H]1CNc2c(sc3ccc4nc(-n5cc(C6CCN(CCN7CCC(c8ccc(C9CCC(=O)NC9=O)cc8)CC7)CC6)nn5)ccc4c23)C(=O)N1 (stereo partly drawn) [Ex 47, 3-(4-(1-(2-(4-(1-((R)-10-Methyl-8-oxo-9,10,11,12-tetrahydro-8H-[1,4]diazepino[5′,6′:4,5]thieno[3,2-f]quinolin-3-yl)-1H-1,2,3-triazol-4-yl)piperidin-1-yl)ethyl)piperidin-4-yl)phenyl)piperidine-2,6-dione]
< 150	C[C@@H]1CNc2c(sc3ccc4nc(-c5cn(C6CCN(CCN7CCC(c8ccc(C9CCC(=O)NC9=O)cc8)CC7)CC6)nn5)ccc4c23)C(=O)N1 (stereo partly drawn) [Ex 48, 3-(4-(1-(2-(4-(4-((R)-10-Methyl-8-oxo-9,10,11,12-tetrahydro-8H-[1,4]diazepino[5′,6′:4,5]thieno[3,2-f]quinolin-3-yl)-1H-1,2,3-triazol-1-yl)piperidin-1-yl)ethyl)piperidin-4-yl)phenyl)piperidine-2,6-dione]
< 150	C[C@@H]1CNc2c(sc3ccc4nc(-c5cn(C6CCN(CCN7CCN(c8ccc(C9CCC(=O)NC9=O)cc8)CC7)CC6)nn5)ccc4c23)C(=O)N1 (stereo partly drawn) [Ex 49, 3-(4-(4-(2-(4-(4-((R)-10-Methyl-8-oxo-9,10,11,12-tetrahydro-8H-[1,4]diazepino[5′,6′:4,5]thieno[3,2-f]quinolin-3-yl)-1H-1,2,3-triazol-1-yl)piperidin-1-yl)ethyl)piperazin-1-yl)phenyl)piperidine-2,6-dione]
< 150	C[C@@H]1CNc2c(sc3ccc4nc(-c5cn(C6CCN(CCN7CCN(c8ccc9c(C%10CCC(=O)NC%10=O)nn(C)c9c8)CC7)CC6)nn5)ccc4c23)C(=O)N1 (stereo partly drawn) [Ex 50, 3-(1-Methyl-6-(4-(2-(4-(4-((R)-10-methyl-8-oxo-9,10,11,12-tetrahydro-8H-[1,4]diazepino[5′,6′:4,5]thieno[3,2-f]quinolin-3-yl)-1H-1,2,3-triazol-1-yl)piperidin-1-yl)ethyl)piperazin-1-yl)-1H-indazol-3-yl)piperidine-2,6-dione]
< 150	C[C@@H]1CNc2c(sc3ccc4nc(-c5cnn(C6CN(CCN7CCN(c8ccc(C9CCC(=O)NC9=O)cc8)CC7)C6)c5)ccc4c23)C(=O)N1 (stereo partly drawn) [Ex 51, 3-(4-(4-(2-(3-(4-((R)-10-Methyl-8-oxo-9,10,11,12-tetrahydro-8H-[1,4]diazepino[5′,6′:4,5]thieno[3,2-f]quinolin-3-yl)-1H-pyrazol-1-yl)azetidin-1-yl)ethyl)piperazin-1-yl)phenyl)piperidine-2,6-dione]
< 150	C[C@@H]1CNc2c(sc3ccc4nc(-c5cnn(C6CN(CCN7CCN(c8ccc9c(C%10CCC(=O)NC%10=O)nn(C)c9c8)CC7)C6)c5)ccc4c23)C(=O)N1 (stereo partly drawn) [Ex 52, 3-(1-Methyl-6-(4-(2-(3-(4-((R)-10-methyl-8-oxo-9,10,11,12-tetrahydro-8H-[1,4]diazepino[5′,6′:4,5]thieno[3,2-f]quinolin-3-yl)-1H-pyrazol-1-yl)azetidin-1-yl)ethyl)piperazin-1-yl)-1H-indazol-3-yl)piperidine-2,6-dione]

The next lines start with the compound.

SMILES	IC50 [nM]
C[C@@H]1CNc2c(sc3ccc4nc(-c5cnc(C6CCN(CCN7CCN(c8ccc(C9CCC(=O)NC9=O)cc8)CC7)CC6)nc5)ccc4c23)C(=O)N1 (stereo partly drawn) [Ex 36, 3-(4-(4-(2-(4-(5-((R)-10-Methyl-8-oxo-9,10,11,12-tetrahydro-8H-[1,4]diazepino[5′,6′:4,5]thieno[3,2-f]quinolin-3-yl)pyrimidin-2-yl)piperidin-1-yl)ethyl)piperazin-1-yl)phenyl)piperidine-2,6-dione]	151 to 500
C[C@@H]1CNc2c(sc3ccc4nc(-c5ccc(C6CCN(CCN7CCN(c8ccc(C9CCC(=O)NC9=O)cc8)CC7)CC6)nn5)ccc4c23)C(=O)N1 (stereo partly drawn) [Ex 37, 3-(4-(4-(2-(4-(6-((R)-10-Methyl-8-oxo-9,10,11,12-tetrahydro-8H-[1,4]diazepino[5′,6′:4,5]thieno[3,2-f]quinolin-3-yl)pyridazin-3-yl)piperidin-1-yl)ethyl)piperazin-1-yl)phenyl)piperidine-2,6-dione]	< 150
C[C@@H]1CNc2c(sc3ccc4nc(-c5ccc(N6CCC(CN7CCN(c8ccc(C9CCC(=O)NC9=O)cc8)CC7)CC6)cc5)ccc4c23)C(=O)N1 (stereo partly drawn) [Ex 38, 3-(4-(4-((1-(4-((R)-10-Methyl-8-oxo-9,10,11,12-tetrahydro-8H-[1,4]diazepino[5′,6′:4,5]thieno[3,2-f]quinolin-3-yl)phenyl)piperidin-4-yl)methyl)piperazin-1-yl)phenyl)piperidine-2,6-dione]	151 to 500
C[C@@H]1CNc2c(sc3ccc4nc(-c5ccc(N6CCC(CCN7CCN(c8ccc(C9CCC(=O)NC9=O)cc8)CC7)CC6)cc5)ccc4c23)C(=O)N1 (stereo partly drawn) [Ex 39, 3-(4-(4-(2-(1-(4-((R)-10-methyl-8-oxo-9,10,11,12-tetrahydro-8H-[1,4]diazepino[5′,6′:4,5]thieno[3,2-f]quinolin-3-yl)phenyl)piperidin-4-yl)ethyl)piperazin-1-yl)phenyl)piperidine-2,6-dione]	151 to 500
C[C@@H]1CNc2c(sc3ccc4nc(-c5ccc(N6CCC(CCN7CCC(c8ccc(C9CCC(=O)NC9=O)cc8)CC7)CC6)cc5)ccc4c23)C(=O)N1 (stereo partly drawn) [Ex 40, 3-(4-(1-(2-(1-(4-((R)-10-Methyl-8-oxo-9,10,11,12-tetrahydro-8H-[1,4]diazepino[5′,6′:4,5]thieno[3,2-f]quinolin-3-yl)phenyl)piperidin-4-yl)ethyl)piperidin-4-yl)phenyl)piperidine-2,6-dione]	151 to 500
C[C@@H]1CNc2c(sc3ccc4nc(-c5ccc(N6CC(CN7CCN(c8ccc(C9CCC(=O)NC9=O)cc8)CC7)C6)cc5)ccc4c23)C(=O)N1 (stereo partly drawn) [Ex 41, 3-(4-(4-((1-(4-((R)-10-Methyl-8-oxo-9,10,11,12-tetrahydro-8H-[1,4]diazepino[5′,6′:4,5]thieno[3,2-f]quinolin-3-yl)phenyl)azetidin-3-yl)methyl)piperazin-1-yl)phenyl)piperidine-2,6-dione]	< 150
C[C@@H]1CNc2c(sc3ccc4nc(-c5ccc(N6CC(CCN7CCN(c8ccc(C9CCC(=O)NC9=O)cc8)CC7)C6)cc5)ccc4c23)C(=O)N1 (stereo partly drawn) [Ex 42, 3-(4-(4-(2-(1-(4-((R)-10-Methyl-8-oxo-9,10,11,12-tetrahydro-8H-[1,4]diazepino[5′,6′:4,5]thieno[3,2-f]quinolin-3-yl)phenyl)azetidin-3-yl)ethyl)piperazin-1-yl)phenyl)piperidine-2,6-dione]	< 150
C[C@@H]1CNc2c(sc3ccc4nc(-c5cnn(C6CCN(CCN7CCN(c8ccc(C9CCC(=O)NC9=O)cc8)CC7)CC6)c5)ccc4c23)C(=O)N1 (stereo partly drawn) [Ex 43, 3-(4-(4-(2-(4-(4-((R)-10-Methyl-8-oxo-9,10,11,12-tetrahydro-8H-[1,4]diazepino[5′,6′:4,5]thieno[3,2-f]quinolin-3-yl)-1H-pyrazol-1-yl)piperidin-1-yl)ethyl)piperazin-1-yl)phenyl)piperidine-2,6-dione]	< 150
C[C@@H]1CNc2c(sc3ccc4nc(-c5cnn(C6CCN(CCN7CCN(c8ccc9c(C%10CCC(=O)NC%10=O)nn(C)c9c8)CC7)CC6)c5)ccc4c23)C(=O)N1 (stereo partly drawn) [Ex 44, 3-(1-Methyl-6-(4-(2-(4-(4-((R)-10-methyl-8-oxo-9,10,11,12-tetrahydro-8H-[1,4]diazepino[5′,6′:4,5]thieno[3,2-f]quinolin-3-yl)-1H-pyrazol-1-yl)piperidin-1-yl)ethyl)piperazin-1-yl)-1H-indazol-3-yl)piperidine-2,6-dione]	< 150
C[C@@H]1CNc2c(sc3ccc4nc(-n5cc(C6CCN(CCN7CCN(c8ccc(C9CCC(=O)NC9=O)cc8)CC7)CC6)nn5)ccc4c23)C(=O)N1 (stereo partly drawn) [Ex 45, 3-(4-(4-(2-(4-(1-((R)-10-Methyl-8-oxo-9,10,11,12-tetrahydro-8H-[1,4]diazepino[5′,6′:4,5]thieno[3,2-f]quinolin-3-yl)-1H-1,2,3-triazol-4-yl)piperidin-1-yl)ethyl)piperazin-1-yl)phenyl)piperidine-2,6-dione]	< 150
